Source: the supplement of paper PMC8671470

How the values were obtained:
Assay in all cases: cell viability (% survival relative to DMSO control); higher = less cytotoxic
Conditions in all cases: 72 h
[1] = tested on: myeloid leukemia patient primary cells Pat.8
In short: (§1)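 Seventy compounds were pre-printed on 384-well plates at five tenfold concentrations between 1 and 10,000 nM, in duplicate. Thawed mononuclear cells purified by Ficoll from AML or CML patients were added at 10,000 cells/well in RPMI 1640 with 10% FBS for 72 h. Viability by CellTiter-Glo was normalised to DMSO and 10 μM proteasome-inhibitor wells. Where stated, area under the curve was taken from log-logistic fits made with the drc and PharmacoGx R packages, each fit having four parameters.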

[2] = tested on: myeloid leukemia patient primary cells Pat.1
In short: as §1

[3] = tested on: myeloid leukemia patient primary cells Pat.9
In short: as §1

[4] = tested on: myeloid leukemia patient primary cells Pat.6
In short: as §1

Row | SMILES | cell viability ([1]; 1 nM) [%] | cell viability ([1]; 10 nM) [%] | cell viability ([1]; 100 nM) [%] | cell viability ([1]; 1000 nM) [%] | cell viability ([1]; 10000 nM) [%] | cell viability ([2]; 1 nM) [%] | cell viability ([2]; 10 nM) [%] | cell viability ([2]; 100 nM) [%] | cell viability ([2]; 1000 nM) [%] | cell viability ([2]; 10000 nM) [%] | cell viability ([3]; 1 nM) [%] | cell viability ([3]; 10 nM) [%] | cell viability ([3]; 100 nM) [%] | cell viability ([3]; 1000 nM) [%] | cell viability ([3]; 10000 nM) [%] | cell viability ([4]; 1 nM) [%] | cell viability ([4]; 10 nM) [%] | cell viability ([4]; 100 nM) [%] | cell viability ([4]; 1000 nM) [%] | cell viability ([4]; 10000 nM) [%]
1 | CC12CCC(O)CC1CCC1C2CCC2(C)C(C3=CC(=O)OC3)CCC12O (stereo not given) [Digitoxigenin] | 91.6 | 89 | 78.4 | 7.34 | 2.31 | 95.1 | 74 | 63.2 | 21.5 | 13 | 79 | 54.7 | 13 | 5.35 | 4.43 | 99.7 | 92.2 | 93.7 | 39.5 | 11.2
2 | Cc1noc2c1-c1ccccc1C(c1ccc(Cl)cc1)=N[C@H]2CC(N)=O [CPI-0610] | 93.5 | 78.8 | 96.1 | 70 | 82.7 | 90.3 | 93.9 | 84.9 | 39.1 | 21.7 | 83 | 24.2 | 88.3 | 6.03 | 11.5 | > 100 | 87.9 | > 100 | 87.9 | 69.7
3 | Sc1ncnc2nc[nH]c12 [6-mercaptopurine] | 80.3 | > 100 | 86.2 | 75.1 | 73 | > 100 | 95.1 | 92.6 | 84.3 | 93.1 | 62.5 | 68.1 | 48.8 | 79.9 | 30.1 | 89.3 | > 100 | 99.8 | 88.3 | 97.9
4 | C[C@]12O[C@H](C[C@]1(O)CO)n1c3ccccc3c3c4c(c5c6ccccc6n2c5c31)CNC4=O [Lestaurtinib] | 87.6 | 75.8 | 61.9 | 54.6 | 0.632 | 93.5 | 54.2 | 22.3 | 22.1 | < 0 | 56.2 | 18.6 | 19.5 | 5.6 | < 0 | 87.2 | 66.8 | 73.2 | 93.9 | 8.53
5 | Nc1ccn([C@@H]2O[C@H](CO)[C@@H](O)[C@@H]2O)c(=O)n1 [Cytarabine] | 90.3 | 91.5 | 96.1 | 89.1 | 22.4 | 99.3 | 96.1 | 76.9 | 84.9 | 60.7 | 89.7 | 18.1 | 51.2 | 15.5 | 2.09 | > 100 | 78.9 | 89.5 | 86.6 | 36.2
6 | COc1c(C)c2c(c(O)c1C/C=C(\C)CCC(=O)O)C(=O)OC2 [Mycophenolic acid] | 69.4 | 92.3 | 75.5 | 91.8 | 43.8 | 78.4 | 96.8 | 85 | 93.9 | 87.3 | 28 | 63.2 | 52 | 50.4 | 75 | 83.4 | 97.6 | 81.8 | 93.2 | > 100
7 | CCN(CC)CCN(Cc1ccc(-c2ccc(C(F)(F)F)cc2)cc1)C(=O)Cn1c(SCc2ccc(F)cc2)nc(=O)c2c1CCC2 [Darapladib] | 62.6 | 85.8 | 77.8 | 86.2 | 1.84 | 79.5 | 83 | 61.6 | 95.4 | < 0 | 37.7 | 60.6 | 25.1 | 2.92 | < 0 | 80.4 | 90 | 72.6 | 79.3 | 0.0489
8 | CCOC(=O)N1c2ccc(C(F)(F)F)cc2[C@@H](N(Cc2cc(C(F)(F)F)cc(C(F)(F)F)c2)C(=O)OC)C[C@H]1CC [Torcetrapib] | 92.3 | 84.8 | 96.1 | 93.3 | 65.7 | 93.1 | 72.9 | 92.6 | 95.4 | 65.3 | 45.1 | 28.6 | 68.9 | 48.8 | 5.45 | 89.2 | 80.7 | > 100 | > 100 | 50.4
9 | CC(Cc1ccc(O)c(O)c1)C(C)Cc1ccc(O)c(O)c1 (stereo not given) [Masoprocol] | 97.6 | 84.9 | 95.6 | 69.7 | 6.74 | > 100 | 92.3 | 90.5 | 85.6 | 51.7 | 75.1 | 87.1 | 97.4 | 9.61 | 83.4 | 97.8 | 94.2 | > 100 | 72.2 | 33.9
10 | Clc1ccc(COC(Cn2ccnc2)c2ccc(Cl)cc2Cl)cc1 (stereo not given) [Econazole] | 93.3 | 86.9 | 81 | > 100 | 85.3 | 83.3 | 77.2 | 93.6 | > 100 | 52.8 | 55.9 | 80.5 | 43.2 | 25.8 | 3.7 | 91.4 | 96 | 92.2 | 84.9 | 44.9
11 | C[C@H]1O[C@@H](O[C@H]2[C@@H](O)C[C@H](O[C@H]3[C@@H](O)C[C@H](O[C@H]4CC[C@@]5(C)[C@H](CC[C@@H]6[C@@H]5C[C@@H](O)[C@]5(C)[C@@H](C7=CC(=O)OC7)CC[C@]65O)C4)O[C@@H]3C)O[C@@H]2C)C[C@H](O)[C@@H]1O [Digoxin] | 84.6 | 96.1 | 67.2 | 6.59 | 5.15 | 96.2 | 84.5 | 85.3 | 13.2 | 8.18 | 76 | 65.2 | 17.7 | 2.92 | 2.42 | 98 | 96 | 87 | 25.4 | 6.2
